Reference: US20180219160A1, “BENZOBIS(THIADIAZOLE) DERIVATIVE, INK COMPRISING THE SAME, AND ORGANIC ELECTRONIC DEVICE USING THE SAME” (UBE INDUSTRIES, LTD., priority 2014, published 2018)

Tests used:
[1] = Evaluation of solubility in organic solvents (visual observation of complete dissolution); type: physicochemical
Description: [Evaluation of Solubility] The evaluation of the solubility of the synthesized compound was conducted by the following method.
About 2-3 mg of the synthesized compound was precisely weighed, and each solvent was added to the compound such that a predetermined concentration of the solute (0.3 wt %, 0.2 wt %, 0.1 wt %) was reached. The resultant mixture was stirred for 30 minutes at a predetermined temperature, and then it was evaluated by visual appearance observation whether or not the solute (synthesized compound) was completely dissolved in the solvent, which was the result of the evaluation of the solubility. As the solvent, chloroform (boiling point 61° C.), toluene (boiling point 111° C.), anisole (boiling point 154° C.), mesitylene (boiling point 165° C.), ortho-dichlorobenzene (boiling point 181° C.) and 1-methylnaphthalene (boiling point 241° C.) were used.

[2] = Thermal weight loss analysis (initial decomposition temperature); type: physicochemical
[3] = 1-methylnaphthalene, room temperature (25° C.)
[4] = chloroform, room temperature (25° C.)
[5] = mesitylene, room temperature (25° C.)

| Structure (SMILES) | solubility (concentration completely dissolved) [1, 3] | solubility (concentration completely dissolved) [1, 4] | initial decomposition temperature [2] | other results |
| --- | --- | --- | --- | --- |
| CCCCCCN1C(=O)c2cc(-c3c4c(c(-c5cc6c(s5)C(=O)N(CCCCCC)C6=O)c5nsnc35)N=S=N4)sc2C1=O [Compound (12-6)] | ≥ 0.1 wt % | ≥ 0.2 wt % | 364 °C | solubility (concentration completely dissolved) ([1]; mesitylene, 80° C.): ≥ 0.3 wt %; solubility (concentration completely dissolved) ([1]; toluene, 80° C.): ≥ 0.3 wt % |
| CCCCCCCCN1C(=O)c2cc(-c3c4c(c(-c5cc6c(s5)C(=O)N(CCCCCCCC)C6=O)c5nsnc35)N=S=N4)sc2C1=O [Compound (12-8)] | ≥ 0.3 wt % | ≥ 0.2 wt % | 367 °C | solubility (concentration completely dissolved) [1, 5]: ≥ 0.3 wt %; solubility (concentration completely dissolved) ([1]; toluene, room temperature (25° C.)): ≥ 0.3 wt % |
| CCCCCCCCCCCCN1C(=O)c2cc(-c3c4c(c(-c5cc6c(s5)C(=O)N(CCCCCCCCCCCC)C6=O)c5nsnc35)N=S=N4)sc2C1=O [Compound (12-12)] | – | ≥ 0.1 wt % | 360 °C | solubility (concentration completely dissolved) ([1]; mesitylene, 60° C.): ≥ 0.3 wt %; solubility (concentration completely dissolved) ([1]; toluene, 60° C.): ≥ 0.3 wt % |
| CCCCC(CC)CN1C(=O)c2cc(-c3c4c(c(-c5cc6c(s5)C(=O)N(CC(CC)CCCC)C6=O)c5nsnc35)N=S=N4)sc2C1=O (stereo not drawn) [Compound (12-EH)] | ≥ 0.3 wt % | ≥ 0.2 wt % | 369 °C | solubility (concentration completely dissolved) ([1]; mesitylene, 80° C.): ≥ 0.3 wt %; solubility (concentration completely dissolved) ([1]; ortho-dichlorobenzene, room temperature (25° C.)): ≥ 0.3 wt/o; solubility (concentration completely dissolved) ([1]; toluene, 60° C.): ≥ 0.3 wt % |
| O=C1c2cc(-c3c4c(c(-c5cc6c(s5)C(=O)N(CC(F)(F)C(F)(F)C(F)(F)F)C6=O)c5nsnc35)N=S=N4)sc2C(=O)N1CC(F)(F)C(F)(F)C(F)(F)F [Compound (12-HepFBu)] | – | ≥ 0.1 wt % | 367 °C | solubility (concentration completely dissolved) ([1]; anisole, room temperature (25° C.)): ≥ 0.1 wt %; solubility (concentration completely dissolved) [1, 5]: ≥ 0.1 wt % |
| CN1C(=O)c2cc(-c3c4c(c(-c5cc6c(s5)C(=O)N(C)C6=O)c5nsnc35)N=S=N4)sc2C1=O [Compound (12-Me)] | – | – | 367 °C | – |
| CN1C(=O)c2cc3cc(-c4c5c(c(-c6cc7cc8c(cc7s6)C(=O)N(C)C8=O)c6nsnc46)N=S=N5)sc3cc2C1=O [Compound (22-1)] | – | – | 475 °C | – |
| CCCCCCN1C(=O)c2cc3cc(-c4c5c(c(-c6cc7cc8c(cc7s6)C(=O)N(CCCCCC)C8=O)c6nsnc46)N=S=N5)sc3cc2C1=O [Compound (22-6)] | – | – | 405 °C | – |
